In series [1] the test system is buccal pouches and principal organs. Nature of the series: Local toxicity of empty vehicles without DMBA induction. It counts as in vivo, Syrian golden hamsters (Mesocricetus auratus). How it is done: The last thirty animals were randomly divided in three further groups (n=10 each) to evaluate the local toxicity of the empty vehicles (TE, TC and TM) without DMBA carcinogenesis induction. Topical application of EtOH, cream and mouthwash was performed in the same manner before described.
In vivo side effects were investigated after 14 weeks of E, C and M topical applications on right buccal pouches on three groups of animals (TE, TC and TM respectively).

In series [2] the test system is DMBA-induced lesions (OPL, ExL) of hamster buccal pouch. Conditions: in vivo.
For series [3] the following is noted: cited from earlier work.
For series [4] the following is noted: cited from earlier work. The source holds these as a separate data set.
The subject of another series is HCPC-I cells. The note with it: in vitro, FIG. 2.
For series [5] the following is noted: cited from earlier work. The source holds these as a separate data set.
The mark [6] stands for this setting: 14 weeks topical application, no DMBA.

We go through 3 molecules from US20110293537A1, “FORMULATIONS WITH ANTI-NEOPLASTIC ACTIVITY” (priority 2008, published 2011).

Where two headings read alike, the source gives them in different places.

Experimental for HCPC-I cells: Cells were harvested every 3-4 days with 0.25% trypsin solution (from Sigma). […] HCPC-I cells were dispensed at a density of 5×10^2/100 μl for each well in RPMI-1640 supplemented with 10% FCS. […] After 72 h of incubation, cells were supplemented with 10 μl of a stock solution (5 mg/ml) of MTT (Sigma) in phosphate buffer saline (PBS). At least 3 h later, culture medium was replaced with 100 μl of dimethyl-sulfoxide (DMSO, Sigma) and plates read at 560 nm with a “Microplate Reader model 450” (BioRad). Cell viability was expressed as average percentage of absorbance in treated cells versus control (culture medium alone).

As to `CCO` [EtOH, ethanol], in series [1] (setting [6]), the “gross observations of pouches and principal organs” value is recorded as “did not reveal any macroscopic alterations”; the “histological HE analysis, local adverse reactions” value was “absence of local adverse reactions”.
As for `Oc1ccc(/C=C/c2cc(O)cc(O)c2)cc1` [RV, 3,4′,5-trihydroxy-trans-stilbene], in series [2], the “tolerance of topical application on oral mucosa” value is listed as “good tolerance”. Further, the oral bioavailability entry in series [3] (human) is on record as “very poor”. The initial half-life in series [3] (in vivo) was 8 to 14 min. In addition, the pKa in series [4] (3-OH group) is recorded as 10; in series [4] (4′-OH group) it was 9.3; in series [4] (5-OH group), 10.6.
hydroxypropyl-β-cyclodextrin [HPβCD]: in series [1] (in vivo concentrations), the “toxic signs or adverse effects in chronic treated hamsters” value was “did not display any toxic signs or adverse effects”. In the series on HCPC-I cells, the “inhibition of cell growth by HPβCD” value is “inhibition of cell growth only at extremely high concentrations”. Moreover, the “dose with main adverse event (soft stools and diarrhea)” value in series [5] (almost 14 days) is 16-24 g HPβCD/day. For the same molecule, in series [5] (orally administered), the oral toxicity result is “practically non-toxic”.

What is called pKa is the pH at which an ionisable group is half protonated.
